# Measured values taken from patent US6433011B1, “Method for inhibiting formation of aberrant crypt foci in the colon of a mammal” (American Health Foundation, priority 2000, dated 2002).
# Entries after “also recorded” stand apart in the source; their conditions may differ. Marks after values point to notes of the source that are not given here.
# Tests used:
# ACF formation = details: given in the diet, short-term study (ref 10); cited from earlier work
# colon tumor incidence = details: AOM treated rats, cited from earlier work
# [1] = system: aberrant crypt foci (ACF) induced by azoxymethane (AOM) in the colon; experiment: AOM-induced colonic aberrant crypt foci (ACF) bioassay; type: in vivo, Male F344 rats
# From the text: The inventors designed a bioassay to examine whether SFN and PEITC can inhibit the formation of aberrant crypt foci (ACF) induced by azoxymethane (AOM) in Fischer rats. ACF has been recognized as an early preneoplastic lesion of colon cancer (7-9) and it is generally observed that agents that inhibit colonic ACF formation would show chemopreventive activity against colon cancer (10). […] The structures of SFN and PEITC and their NAC conjugates are shown below. Two treatment regimens in which SFN and PEITC or their NAC conjugates were administered either after (post-initiation) or before (initiation) AOM treatment were used in the bioassay in order better to define the possible mechanism of action. [drawing 1] Male F344 rats were from Charles River (Kingston, N.Y.). They were fed AIN-76A diet (5% corn oil) and tap water ad libitum. […] PEITC and SFN were purchased from Aldrich Chemical Company (Milwaukee, Wis.) and LTK Labs, Inc. (St. […] The corresponding NAC conjugates were prepared by a published method (13, 26). The purity of the conjugates was greater than 97% as determined by high-performance liquid chromatography. AOM obtained from Ash-Stevens (Detroit, Mich.) was dissolved in saline and administered subcutaneously once a week for two weeks. SFN and PEITC in corn oil and the NAC conjugates in saline (10% DMSO) were given by gavage. Groups 2 to 5 were given 5 μmol SFN or PEITC or 20 μmol of the NAC conjugates, three doses each week for eight weeks, beginning two days after the last dose of AOM. Groups 6 to 9 were treated with three doses of ITC compounds (20 μmol ITC or 50 μmol ITC-NAC) once daily and the last dose was given 2 hr before AOM dosing. This dosing regimen was repeated during the second week of AOM dosing. Groups 10 to 13 were treated with ITCs (5 μmol/dose) or the conjugates (20 μmol/dose) only, three times weekly for eight weeks. Group 14 served as the control group. The bioassay was terminated at week 10 after the second AOM treatment. The colon was processed for microscopic examination and the ACF were recorded using a standard procedure described previously (14). […] For statistical analysis, means were compared among the groups using one-way analysis of variance (ANOVA) followed by Fisher's protected t-test.
# [2] = target: N,N-dimethylnitrosamine (NDMA) demethylase (CYP2E1) (Rattus norvegicus, UniProt P05182); details: rat liver microsomes; previously shown (ref 26); cited from earlier work
# Sequence of N,N-dimethylnitrosamine (NDMA) demethylase (CYP2E1) (P05182 whole entry): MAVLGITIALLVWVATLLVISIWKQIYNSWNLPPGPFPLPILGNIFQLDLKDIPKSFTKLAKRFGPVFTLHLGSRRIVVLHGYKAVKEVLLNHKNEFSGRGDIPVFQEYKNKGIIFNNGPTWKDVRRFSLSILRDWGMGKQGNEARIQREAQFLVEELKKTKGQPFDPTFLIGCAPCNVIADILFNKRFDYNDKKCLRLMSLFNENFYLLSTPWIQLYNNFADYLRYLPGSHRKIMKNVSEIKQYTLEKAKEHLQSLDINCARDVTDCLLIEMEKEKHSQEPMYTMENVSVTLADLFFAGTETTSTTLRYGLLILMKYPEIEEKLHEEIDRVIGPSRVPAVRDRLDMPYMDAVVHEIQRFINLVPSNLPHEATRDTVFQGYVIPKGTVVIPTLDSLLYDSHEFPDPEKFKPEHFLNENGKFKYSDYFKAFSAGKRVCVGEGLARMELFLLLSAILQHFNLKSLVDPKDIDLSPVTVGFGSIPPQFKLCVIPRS
# [3] = dog, in vivo; cited from earlier work
# [4] = Toxicity observations (body weight, gastrointestinal symptoms) in the ACF bioassay
# esophagus tumorigenesis = details: rats; at the dose level studied (refs 29, 30); cited from earlier work
# colon tumorigenesis = details: rats; at the dose level studied (refs 29, 30); cited from earlier work
# lung tumorigenesis = details: previously reported; cited from earlier work
# [5] = initiation (pretreatment): 20 μmol ITC or 50 μmol ITC-NAC before AOM, negative = enhancement
# [6] = initiation (pretreatment): 20 μmol ITC or 50 μmol ITC-NAC by gavage before AOM, AOM alone (Group 1) 52
# [7] = initiation (pretreatment): 20 μmol ITC or 50 μmol ITC-NAC by gavage before AOM, AOM alone (Group 1) 153
# [8] = post-initiation: 5 μmol SFN or PEITC or 20 μmol NAC conjugate by gavage, three doses weekly for eight weeks after AOM, AOM alone (Group 1) 52
# [9] = post-initiation: 5 μmol SFN or PEITC or 20 μmol NAC conjugate by gavage, three doses weekly for eight weeks after AOM, AOM alone (Group 1) 153
# [10] = post-initiation: 5 μmol SFN or PEITC or 20 μmol NAC conjugate, three doses weekly for eight weeks after AOM
# [11] = ITC compound only, no AOM: 5 μmol/dose ITC or 20 μmol/dose conjugate, three times weekly for eight weeks
# [12] = initiation: ITC compound by gavage before AOM, 20 μmol ITC or 50 μmol ITC-NAC, three doses once daily, last 2 hr before AOM, repeated in second week
# [13] = post-initiation: ITC compound by gavage after AOM, 5 μmol SFN or PEITC or 20 μmol NAC conjugate, three doses each week for eight weeks
Compound,Activity towards ACF formation (ACF formation),"Percent of inhibition compared to Group 1, Total aberrant crypt foci [1, 5]","Percent of inhibition compared to Group 1, aberrant crypt foci >4 Crypts [1, 5]","Number of aberrant crypt foci >4 Crypts [1, 6]","Number of aberrant crypt foci Total [1, 7]","Number of aberrant crypt foci >4 Crypts [1, 8]","Number of aberrant crypt foci Total [1, 9]","Percent of inhibition compared to Group 1, Total aberrant crypt foci [1, 10]","Percent of inhibition compared to Group 1, aberrant crypt foci >4 Crypts [1, 10]",Inhibition of NDMA demethylase (CYP2E1) [2],"Average Body Weight at Termination [4, 11]","Average Body Weight at Termination [4, 12]","Average Body Weight at Termination [4, 13]","Number of aberrant crypt foci >4 Crypts [1, 11]","Number of aberrant crypt foci Total [1, 11]",other results
"S=C=NCc1ccccc1 [BITC, benzyl isothiocyanate]",inactive; also recorded: slightly induce ACF formation,–,–,–,–,–,–,–,–,–,–,–,–,–,–,"Effect on colon tumor incidence, initiation phase (colon tumor incidence; initiation phase (ref 34)): inhibit; Effect on colon tumor incidence, post-initiation phase (colon tumor incidence; post-initiation phase (ref 34)): not during the post-initiation phase"
"S=C=NCCc1ccccc1 [PEITC, phenethyl isothiocyanate]",inactive,(25)^c %,(33)^f %,35,115,27,100,(35)^d %,(48)^c %,inhibitors,–,–,–,–,–,"Dose at which dose related weight loss became statistically significant [3]: 8 mg/kg; Dose at which signs of irritation of the mucosa of the urinary bladder were reported [3]: ≥ 4 mg/kg/day; Dose levels at which diarrhea and vomiting, with gastrointestinal irritation, occurred sporadically [3]: ≥ 2 mg/kg"
"CC(=O)N[C@@H](CSC(=S)NCCc1ccccc1)C(=O)O [PEITC-NAC, N-acetylcysteine conjugate of PEITC]",–,(−29)^e %,(−42)^c %,74,198,38,113,(26)^e %,(27)^f %,inhibitors,301,303,313,0,0,–
"C[S+]([O-])CCCCN=C=S (centres unmarked) [SFN, sulforaphane]",–,(29)^c %,(33)^f %,35,109,30,103,(33)^d %,"(42)^b,c %",–,309,310,301,0,0,–
S=C=NCCCCCCc1ccccc1 [phenylhexyl ITC],–,–,–,–,–,–,–,–,–,–,–,–,–,–,–,Effect on esophagus tumorigenesis (esophagus tumorigenesis): enhanced; Effect on colon tumorigenesis (colon tumorigenesis): enhanced; Effect on lung tumorigenesis (lung tumorigenesis): potent inhibitor
N-acetylcysteine conjugate of SFA [SFN-NAC],–,(22)^c %,15%,44,120,31,116,(24)^c %,(40)^c %,–,312,304,297,0,0,–
